Here are results for 23 compounds from patent US8129398B2 (priority 2008, dated 2012).

The target in the assay is T1, HIV-integrase (Human immunodeficiency virus type 1 group M subtype B, UniProt P12497).
T1 construct: Recombinant integrase (0.26 ng) was incubated with the beads
Nature of the assay: HIV-Integrase Inhibition Activity (SPA bead integration assay with P33 labeled target DNA). The note with it: recombinant integrase, class symbols; read-out: in vitro activity. The class given is biochemical. On the procedure:
HIV-Integrase Inhibition Activity. To evaluate in-vitro activity against HIV-integrase, 5 pmole of biotin labeled substrate DNA was bound to 100 μg of Streptavidin coated PVT SPA beads (Amersham Pharmacia Biotech). Recombinant integrase (0.26 ng) was incubated with the beads for 90 min at 37° C. Unbound enzyme was removed by washing the complex followed by addition of inhibitors and 0.1 fmol of P33 labeled target DNA. The reaction was stopped by adding EDTA to a final concentration of 10 mM. Samples were counted in TopCountNXT (Packard) and the CPM was used as a measure of integration. The reaction condition was as described in A. Engelman and R. Craigie, J. Virol. 69, 5908-5911 (1995). The sequences of substrate and target DNA were described in Nucleic Acid Research 22, 1121-1122 (1994). Activity equal to A refers to a compound having IC50=<10 nM while B and C denote compounds having […] and IC50>100 nM respectively.
Take `CNC(=O)C(=O)NC12CCC(CC1)Cn1c2nc(C(=O)NCc2ccc(F)cc2)c(O)c1=O` [Example 61, N-(2-((4-Fluorobenzyl)carbamoyl)-3-hydroxy-4-oxo-6,7,8,9-tetrahydro-7,10-ethanopyrimido[1,2-a]azepin-10(4H)-yl)-N′-methylethanediamide]: the IC50 is < 10 nM.
Take `O=C(NC12CCC(CC1)Cn1c2nc(C(=O)NCc2ccc(F)cc2)c(O)c1=O)C(=O)N1CCNCC1` [Example 62, N-(4-Fluorobenzyl)-3-hydroxy-4-oxo-10-((oxo(1-piperazinyl)acetyl)amino)-4,6,7,8,9,10-hexahydro-7,10-ethanopyrimido[1,2-a]azepine-2-carboxamide]: the IC50 was < 10 nM.
To `O=C(NC12CCC(CC1)Cn1c2nc(C(=O)NCc2ccc(F)cc2)c(O)c1=O)C(=O)N1CCC(O)CC1` [Example 63, N-(4-Fluorobenzyl)-3-hydroxy-10-(((4-hydroxy-1-piperidinyl)(oxo)acetyl)amino)-4-oxo-4,6,7,8,9,10-hexahydro-7,10-ethanopyrimido[1,2-a]azepine-2-carboxamide] belongs < 10 nM.
As to `C[C@@H]1CN(C(=O)C(=O)NC23CCC(CC2)Cn2c3nc(C(=O)NCc3ccc(F)cc3)c(O)c2=O)C[C@H](C)O1` [Example 64, 10-((((2R,6S)-2,6-Dimethyl-4-morpholinyl)(oxo)acetyl)amino)-N-(4-fluorobenzyl)-3-hydroxy-4-oxo-4,6,7,8,9,10-hexahydro-7,10-ethanopyrimido[1,2-a]azepine-2-carboxamide], the IC50 was < 10 nM.
The result for `O=C(NC12CCC(CC1)Cn1c2nc(C(=O)NCc2ccc(F)cc2)c(O)c1=O)C(=O)N1CC(O)C1` [Example 65, N-(4-Fluorobenzyl)-3-hydroxy-10-(((3-hydroxy-1-azetidinyl) (oxo)acetyl)amino)-4-oxo-4,6,7,8,9,10-hexahydro-7,10-ethanopyrimido[1,2-a]azepine-2-carboxamide] reads < 10 nM.
The result for `COC1CN(C(=O)C(=O)NC23CCC(CC2)Cn2c3nc(C(=O)NCc3ccc(F)cc3)c(O)c2=O)C1` [Example 66, N-(4-Fluorobenzyl)-3-hydroxy-10-(((3-methoxy-1-azetidinyl) (oxo)acetyl)amino)-4-oxo-4,6,7,8,9,10-hexahydro-7,10-ethanopyrimido[1,2-a]azepine-2-carboxamide] reads < 10 nM; that for `O=C(NC12CCC(CC1)Cn1c2nc(C(=O)NCc2ccc(F)cc2)c(O)c1=O)C(=O)N1CCC1` [Example 67, 10-((1-Azetidinyl(oxo)acetyl)amino)-N-(4-fluorobenzyl)-3-hydroxy-4-oxo-4,6,7,8,9,10-hexahydro-7,10-ethanopyrimido[1,2-a]azepine-2-carboxamide], < 10 nM; that for `CC(=O)N[C@H]1CCN(C(=O)C(=O)NC23CCC(CC2)Cn2c3nc(C(=O)NCc3ccc(F)cc3)c(O)c2=O)C1` [Example 68, 10-((((3S)-3-(Acetylamino)-1-pyrrolidinyl) (oxo)acetyl)amino)-N-(4-fluorobenzyl)-3-hydroxy-4-oxo-4,6,7,8,9,10-hexahydro-7,10-ethanopyrimido[1,2-a]azepine-2-carboxamide], < 10 nM.
The result for `O=C(NC12CCC(CC1)Cn1c2nc(C(=O)NCc2ccc(F)cc2)c(O)c1=O)C(=O)N1CCC[C@H]1CO` [Example 69, N-(4-Fluorobenzyl)-3-hydroxy-10-((((2S)-2-(hydroxymethyl)-1-pyrrolidinyl)(oxo)acetyl)amino)-4-oxo-4,6,7,8,9,10-hexahydro-7,10-ethanopyrimido[1,2-a]azepine-2-carboxamide] reads < 10 nM.
Turning to `O=C(NC12CCC(CC1)Cn1c2nc(C(=O)NCc2ccc(F)cc2)c(O)c1=O)C(=O)N1CCC(F)(F)C1` [Example 70, 10-(((3,3-Difluoro-1-pyrrolidinyl)(oxo)acetyl)amino)-N-(4-fluorobenzyl)-3-hydroxy-4-oxo-4,6,7,8,9,10-hexahydro-7,10-ethanopyrimido[1,2-a]azepine-2-carboxamide], the IC50 is < 10 nM.
Turning to `CN1CCN(C(=O)C(=O)NC23CCC(CC2)Cn2c3nc(C(=O)NCc3ccc(F)cc3)c(O)c2=O)CC1` [Example 71, N-(4-Fluorobenzyl)-3-hydroxy-10-(((4-methyl-1-piperazinyl)(oxo)acetyl)amino)-4-oxo-4,6,7,8,9,10-hexahydro-7,10-ethanopyrimido[1,2-a]azepine-2-carboxamide], the IC50 was < 10 nM.
To `O=C(NC12CCC(CC1)Cn1c2nc(C(=O)NCc2ccc(F)cc2)c(O)c1=O)C(=O)N1CCN(CCO)CC1` [Example 72, N-(4-Fluorobenzyl)-3-hydroxy-10-(((4-(2-hydroxyethyl)-1-piperazinyl)(oxo)acetyl)amino)-4-oxo-4,6,7,8,9,10-hexahydro-7,10-ethanopyrimido[1,2-a]azepine-2-carboxamide] belongs < 10 nM; to `COCCN1CCN(C(=O)C(=O)NC23CCC(CC2)Cn2c3nc(C(=O)NCc3ccc(F)cc3)c(O)c2=O)CC1` [Example 73, N-(4-Fluorobenzyl)-3-hydroxy-10-(((4-(2-methoxyethyl)-1-piperazinyl)(oxo)acetyl)amino)-4-oxo-4,6,7,8,9,10-hexahydro-7,10-ethanopyrimido[1,2-a]azepine-2-carboxamide], < 10 nM.
The result for `O=C(NC12CCC(CC1)Cn1c2nc(C(=O)NCc2ccc(F)cc2)c(O)c1=O)C(=O)N1CCN(C(=O)C2CCCO2)CC1` (centres unmarked) [Example 74, N-(4-Fluorobenzyl)-3-hydroxy-4-oxo-10-((oxo(4-(tetrahydro-2-furanylcarbonyl)-1-piperazinyl)acetyl)amino)-4,6,7,8,9,10-hexahydro-7,10-ethanopyrimido[1,2-a]azepine-2-carboxamide] reads < 10 nM; that for `O=C(NC12CCC(CC1)Cn1c2nc(C(=O)NCc2ccc(F)cc2)c(O)c1=O)C(=O)N1CCN(CCOCCO)CC1` [Example 75, N-(4-Fluorobenzyl)-3-hydroxy-10-(((4-(2-(2-hydroxyethoxy)ethyl)-1-piperazinyl)(oxo)acetyl)amino)-4-oxo-4,6,7,8,9,10-hexahydro-7,10-ethanopyrimido[1,2-a]azepine-2-carboxamide], < 10 nM.
On to `CS(=O)(=O)N1CCN(C(=O)C(=O)NC23CCC(CC2)Cn2c3nc(C(=O)NCc3ccc(F)cc3)c(O)c2=O)CC1` [Example 76, N-(4-Fluorobenzyl)-3-hydroxy-10-(((4-(methylsulfonyl)-1-piperazinyl)(oxo)acetyl)amino)-4-oxo-4,6,7,8,9,10-hexahydro-7,10-ethanopyrimido[1,2-a]azepine-2-carboxamide], for which the IC50 was < 10 nM.
To `O=C(NC12CCC(CC1)Cn1c2nc(C(=O)NCc2ccc(F)cc2)c(O)c1=O)C(=O)N1CCN(c2ccccc2)CC1` [Example 77, N-(4-Fluorobenzyl)-3-hydroxy-4-oxo-10-((oxo(4-phenyl-1-piperazinyl)acetyl)amino)-4,6,7,8,9,10-hexahydro-7,10-ethanopyrimido[1,2-a]azepine-2-carboxamide] belongs < 10 nM.
`O=C(NC12CCC(CC1)Cn1c2nc(C(=O)NCc2ccc(F)cc2)c(O)c1=O)C(=O)N1CCN(c2ccccn2)CC1` [Example 78, N-(4-Fluorobenzyl)-3-hydroxy-4-oxo-10-((oxo(4-(2-pyridinyl)-1-piperazinyl)acetyl)amino)-4,6,7,8,9,10-hexahydro-7,10-ethanopyrimido[1,2-a]azepine-2-carboxamide]: the IC50 is < 10 nM.
The result for `O=C(NC12CCC(CC1)Cn1c2nc(C(=O)NCc2ccc(F)cc2)c(O)c1=O)C(=O)N1CCN(C(=O)N2CCOCC2)CC1` [Example 79, N-(4-Fluorobenzyl)-3-hydroxy-10-(((4-(4-morpholinylcarbonyl)-1-piperazinyl)(oxo)acetyl)amino)-4-oxo-4,6,7,8,9,10-hexahydro-7,10-ethanopyrimido[1,2-a]azepine-2-carboxamide] reads < 10 nM.
To `CN(C)C(=O)N1CCN(C(=O)C(=O)NC23CCC(CC2)Cn2c3nc(C(=O)NCc3ccc(F)cc3)c(O)c2=O)CC1` [Example 80, 10-(((4-(Dimethylcarbamoyl)-1-piperazinyl)(oxo)acetyl)amino)-N-(4-fluorobenzyl)-3-hydroxy-4-oxo-4,6,7,8,9,10-hexahydro-7,10-ethanopyrimido[1,2-a]azepine-2-carboxamide] belongs < 10 nM; to `CN(CCO)C(=O)C(=O)NC12CCC(CC1)Cn1c2nc(C(=O)NCc2ccc(F)cc2)c(O)c1=O` [Example 81, N′-(2-((4-Fluorobenzyl)carbamoyl)-3-hydroxy-4-oxo-6,7,8,9-tetrahydro-7,10-ethanopyrimido[1,2-a]azepin-10(4H)-yl)-N-(2-hydroxyethyl)-N-methylethanediamide], < 10 nM; to `CN(C(=O)C(=O)NC12CCC(CC1)Cn1c2nc(C(=O)NCc2ccc(F)cc2)c(O)c1=O)C1CC1` [Example 82, N-Cyclopropyl-N′-(2-((4-fluorobenzyl)carbamoyl)-3-hydroxy-4-oxo-6,7,8,9-tetrahydro-7,10-ethanopyrimido[1,2-a]azepin-10(4H)-yl)-N-methylethanediamide], < 10 nM.
To `CCOC(=O)C(=O)NC12CCC(CC1)Cn1c2nc(C(=O)NCc2ccc(F)cc2)c(O)c1=O` [Example 83, Ethyl((2-((4-fluorobenzyl)carbamoyl)-3-hydroxy-4-oxo-6,7,8,9-tetrahydro-7,10-ethanopyrimido[1,2-a]azepin-10(4H)-yl)amino)(oxo)acetate] belongs < 10 nM.
